The target in one experiment is T1, Recombinant human p38α (Homo sapiens, UniProt Q16539).
T1 construct: GST; made in house
Kind of experiment: Fluorescence anisotropy kinase binding assay. The note with it: 12 nM p38α, 5 nM fluorescent ligand. How it is done:
Assay 1: Fluorescence Anisotropy Kinase Binding Assay
The concentration of kinase enzyme should preferably be 2×Kf. The concentration of fluorescent ligand required will depend on the instrumentation used, and the fluorescent and physicochemical properties. The concentration used must be lower than the concentration of kinase enzyme, and preferably less than half the kinase enzyme concentration.
Recombinant human p38α was expressed as a GST-tagged protein. To activate this protein, 3.5 μM unactivated p38α was incubated in 50 mM Tris-HCl pH 7.5, 0.1 mM EGTA, 0.1% 2-mercaptoethanol, 0.1 mM sodium vanadate, 10 mM MgAc, 0.1 mM ATP with 200 nM MBP-MKK6 DD at 30 degrees for 30 mins. Following activation p38α was re-purified and the activity assessed using a standard filter-binding assay.
All components are dissolved in buffer of composition 62.5 mM HEPES, pH 7.5, 1.25 mM CHAPS, 1 mM DTT, 12.5 mM MgCl2 with final concentrations of 12 nM p38α and 5 nM fluorescent ligand. 30 μl of this reaction mixture is added to wells containing 1 μl of various concentrations of test compound (0.28 nM-16.6 μM final) or DMSO vehicle (3% final) in NUNC 384 well black microtitre plate and equilibrated for 30-60 mins at room temperature. Fluorescence anisotropy is read in Molecular Devices Acquest (excitation 485 nm/emission 535 nm).
Definitions: Ki=dissociation constant for inhibitor binding […]

The subject of experiment [1] is TNFα production in LPS-stimulated leukocytes (human whole blood). The experiment is described as follows: TNFα production in human whole blood (LPS-stimulated). Type of experiment: cell-based. The note with it: Leukocyte, 1 hr preincubation, LPS 50 ng/ml, 20 hours. The text has this: Assay 2: TNFα Production in Human Whole Blood
p38 Mitogen-activated protein (MAP) kinase (p38) regulates the biosynthesis of pro-inflammatory cytokines such as TNFα. The potency as an inhibitor of cytokine production can thus be assessed by measuring the effects on TNFα production in LPS-stimulated leukocytes. Carrying the assay out on whole blood rather than isolated leukocytes gives a measure of whole cell potency of the compound in the presence of plasma protein and cells, particularly red blood cells that in vivo are likely to lower circulating free drug concentrations. […] The concentrations of TNF in the original whole blood assay supernatants can then be determined from a standard curve generated using authentic human TNFα.
Heparinised blood drawn from normal volunteers was dispensed (100 μl) into microtitre plate wells containing 0.5 or 1.0 μl of an appropriately diluted compound solution. […] Plasma TNFα content was determined by electrochemiluminescence assay using the IGEN technology. […]
TNF assay plates (MSD: cat L41IB-1) were blocked overnight with 20 μl human serum cytokine diluent (MSD). […] 150 μl 2× read buffer T (MSD Cat R92TC-1) was added to the whole blood plates and 90 μl 2.5× read buffer P (MSD Cat R92PC-1) to the PBMC plates and all plates read in the MSD Sector Imager 6000 electrochemiluminescence reader.

The structures appear in SMILES notation.

T1 sequence (Q16539 whole entry): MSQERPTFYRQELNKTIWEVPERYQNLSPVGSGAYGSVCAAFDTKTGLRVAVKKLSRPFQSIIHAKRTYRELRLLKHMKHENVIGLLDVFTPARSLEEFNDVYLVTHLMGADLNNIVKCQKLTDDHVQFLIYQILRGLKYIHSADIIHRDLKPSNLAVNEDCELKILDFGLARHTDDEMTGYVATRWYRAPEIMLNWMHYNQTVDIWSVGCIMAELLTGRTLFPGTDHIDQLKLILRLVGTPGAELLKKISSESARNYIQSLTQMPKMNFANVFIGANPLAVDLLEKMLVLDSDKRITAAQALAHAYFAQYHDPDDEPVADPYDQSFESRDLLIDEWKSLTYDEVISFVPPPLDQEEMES

For `Cc1c(F)cc(C(=O)Nc2ccon2)cc1-c1ccc(C(=O)NCC(C)(C)C)cn1` [Example 1], the IC50 (at Recombinant human p38α; in experiment [1]) was under 0.05 µM throughout.

Source of the values: patent US20080214623A1, “N-(2,2-Dimethylpropyl)-6- -3-Pyridinecarboxamide” (priority 2005, published 2008).
